Experimental data published in US20160368870A1, “OLEFIN SUBSTITUTED OXINDOLES HAVING AMPK ACTIVITY” (BOEHRINGER INGELHEIM INTERNATIONAL GMBH, priority 2013, published 2016).

Legend:
[1] = target: T1, AMPK beta 1 (Homo sapiens, UniProt Q13131+Q9Y478); assay: in-cell-ELISA for phospho-ACC, Activity beta 1; assay type: cell-based; details: 2 h, serum free DMEM, percentage activation over vehicle control, cell line not given (HepG2 or C2C12 myotubes)
T1 construct: in-cell-ELISA for phospho-ACC (Acetyl-CoA carboxylase 1) in HepG2 cells (liver); endogenous in cells; host or cells: HepG2
Description: (§1) Activation of AMPK by various compounds were measured using in-cell-ELISA for phospho-ACC (Acetyl-CoA carboxylase 1) in HepG2 cells (liver) and fully differentiated myotubes (C2C12 cells) grown in 96 well plate. Cells were treated with 1 μM of the molecule for 2 h in serum free DMEM media. After methanol fixation, cells were blocked with BSA followed by addition of anti-phospho ACC antibody (Cell Signaling) and HRP conjugated secondary antibody. Absorbance values taken at 450 nm and were normalized with total DNA (Hoechest stain). Results were expressed as percentage activation over vehicle control.

[2] = target: T2, AMPK beta 2 (Mus musculus, UniProt Q6PAM0+Q8BRK8); assay: in-cell-ELISA for phospho-ACC, Activity beta 2; assay type: cell-based; details: 2 h, serum free DMEM, percentage activation over vehicle control, cell line not given (HepG2 or C2C12 myotubes)
T2 construct: fully differentiated myotubes (C2C12 cells) grown in 96 well plate; endogenous in cells; host or cells: C2C12 myotubes
Description: as §1

T1 sequence (Q9Y478 whole entry): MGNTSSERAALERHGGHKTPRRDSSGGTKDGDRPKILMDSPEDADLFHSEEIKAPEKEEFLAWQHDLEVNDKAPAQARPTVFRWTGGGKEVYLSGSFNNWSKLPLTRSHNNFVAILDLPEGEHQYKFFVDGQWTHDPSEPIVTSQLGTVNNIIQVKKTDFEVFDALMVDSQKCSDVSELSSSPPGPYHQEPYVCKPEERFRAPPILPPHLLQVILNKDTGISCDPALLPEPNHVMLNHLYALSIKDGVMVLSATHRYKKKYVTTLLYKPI
T1 sequence (Q13131 whole entry): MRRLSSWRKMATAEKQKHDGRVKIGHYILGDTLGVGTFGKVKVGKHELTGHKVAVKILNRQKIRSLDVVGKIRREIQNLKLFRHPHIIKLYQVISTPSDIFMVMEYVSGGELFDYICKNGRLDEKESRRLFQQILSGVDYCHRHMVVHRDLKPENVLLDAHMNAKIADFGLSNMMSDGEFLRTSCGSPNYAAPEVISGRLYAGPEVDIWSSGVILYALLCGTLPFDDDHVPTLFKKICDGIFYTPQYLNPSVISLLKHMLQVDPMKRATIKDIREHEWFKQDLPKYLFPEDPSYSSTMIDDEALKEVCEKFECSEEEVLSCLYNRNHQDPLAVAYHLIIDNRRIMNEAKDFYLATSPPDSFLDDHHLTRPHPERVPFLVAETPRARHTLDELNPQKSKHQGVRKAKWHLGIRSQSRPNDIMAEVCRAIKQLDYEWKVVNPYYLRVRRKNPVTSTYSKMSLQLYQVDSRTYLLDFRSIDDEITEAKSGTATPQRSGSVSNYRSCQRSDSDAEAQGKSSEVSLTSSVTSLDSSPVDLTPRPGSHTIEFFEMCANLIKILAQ
T1 sequence (P54619 whole entry partner): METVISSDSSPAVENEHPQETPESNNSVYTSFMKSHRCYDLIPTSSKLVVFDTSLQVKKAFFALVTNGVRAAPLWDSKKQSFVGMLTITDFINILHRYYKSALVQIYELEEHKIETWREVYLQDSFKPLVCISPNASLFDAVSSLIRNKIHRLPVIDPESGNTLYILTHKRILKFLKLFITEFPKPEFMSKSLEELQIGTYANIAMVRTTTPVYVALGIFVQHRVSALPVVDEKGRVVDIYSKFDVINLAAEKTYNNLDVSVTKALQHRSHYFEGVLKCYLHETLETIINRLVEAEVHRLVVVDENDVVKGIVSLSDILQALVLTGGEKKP
T2 sequence (Q6PAM0 whole entry): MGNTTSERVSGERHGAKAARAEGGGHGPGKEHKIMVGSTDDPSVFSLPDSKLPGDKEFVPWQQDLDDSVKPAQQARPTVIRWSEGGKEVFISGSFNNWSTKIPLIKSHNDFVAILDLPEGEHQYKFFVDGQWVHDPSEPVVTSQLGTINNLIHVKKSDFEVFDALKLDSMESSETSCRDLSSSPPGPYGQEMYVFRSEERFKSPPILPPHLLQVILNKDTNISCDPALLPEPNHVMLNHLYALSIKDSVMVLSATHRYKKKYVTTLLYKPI
T2 sequence (Q8BRK8 whole entry): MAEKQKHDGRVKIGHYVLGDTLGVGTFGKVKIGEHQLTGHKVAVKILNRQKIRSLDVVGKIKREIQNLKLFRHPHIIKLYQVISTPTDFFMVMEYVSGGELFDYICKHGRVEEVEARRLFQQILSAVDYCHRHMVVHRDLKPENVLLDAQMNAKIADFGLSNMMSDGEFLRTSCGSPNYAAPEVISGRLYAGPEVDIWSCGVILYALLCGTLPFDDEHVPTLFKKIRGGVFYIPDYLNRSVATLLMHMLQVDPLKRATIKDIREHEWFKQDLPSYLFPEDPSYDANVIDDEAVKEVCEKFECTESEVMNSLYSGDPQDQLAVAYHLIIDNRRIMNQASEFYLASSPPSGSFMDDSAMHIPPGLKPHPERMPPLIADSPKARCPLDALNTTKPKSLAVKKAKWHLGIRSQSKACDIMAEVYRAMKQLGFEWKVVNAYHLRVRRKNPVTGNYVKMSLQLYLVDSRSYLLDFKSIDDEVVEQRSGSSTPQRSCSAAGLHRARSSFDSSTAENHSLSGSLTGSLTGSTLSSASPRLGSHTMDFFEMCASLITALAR
T2 sequence (O54950 whole entry partner): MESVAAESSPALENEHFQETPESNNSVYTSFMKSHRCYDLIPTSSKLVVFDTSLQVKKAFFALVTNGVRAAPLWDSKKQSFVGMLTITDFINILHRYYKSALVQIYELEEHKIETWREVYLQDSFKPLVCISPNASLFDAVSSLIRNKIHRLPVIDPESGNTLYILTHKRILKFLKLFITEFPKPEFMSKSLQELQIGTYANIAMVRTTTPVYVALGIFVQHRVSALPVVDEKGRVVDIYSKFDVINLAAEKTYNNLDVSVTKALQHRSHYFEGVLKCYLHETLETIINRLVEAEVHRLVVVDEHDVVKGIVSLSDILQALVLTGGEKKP

| SMILES | activation at 1 µM [1] [%] | Activity beta 2 (at 1 uM) [2] | Activity beta 1 (at 1 uM) [1] |
| --- | --- | --- | --- |
| COc1ccc(C=C2C(=O)Nc3cc(F)c(-c4ccc(-c5ccc(-n6cncn6)cc5)cc4)cc32)cc1CC(=O)O [Example 59] | > 40 |  |  |
| Cn1cc(C=C2C(=O)N(CCO)c3cc(Cl)c(-c4ccc(-c5ccccc5O)cc4)cc32)cc1C(=O)O [Example 26] | < 20 |  |  |
| COc1ccc(C=C2C(=O)Nc3cc(Cl)c(-c4ncc(-c5ccccc5O)cn4)cc32)cc1CC(=O)O [Example 46] | < 20 |  |  |
| Cc1ccc(C=C2C(=O)Nc3cc(F)c(-c4ccc(-c5ccc(-n6cncn6)cc5)cc4)cc32)cc1C(=O)O [Example 65] | > 40 |  |  |
| Cn1nc(C=C2C(=O)Nc3cc(Cl)c(-c4ccc(-c5ccccc5O)cc4)cc32)cc1C(=O)[O-].[Na+] (mixture of isomers) [Example 21, Sodium 3-{(E/Z)-[6-chloro-5-(2′-hydroxybiphenyl-4-yl)-2-oxo-1,2-dihydro-3H-indol-3-ylidene]methyl}-1-methyl-1H-pyrazole-5-carboxylate] |  |  | * (* <20) |
| Cc1ccc(C=C2C(=O)Nc3cc(Cl)c(-c4ncc(-c5ccccc5O)cn4)cc32)cc1CC(=O)O [Example 45] | < 20 |  |  |
| C/C(=C1/C(=O)Nc2cc(F)c(-c3ccc(-c4ccccc4O)cc3)cc21)c1cccc(CC(=O)N2CCCC2)c1 [Example 24, (3Z)-6-Fluoro-5-(2′-hydroxybiphenyl-4-yl)-3-(1-{3-[2-oxo-2-(pyrrolidin-1-yl)ethyl]phenyl}ethylidene)-1,3-dihydro-2H-indol-2-one] | < 20 |  |  |
| Cc1ccc(C=C2C(=O)Nc3cc(F)c(-c4ccc(-c5ccc(-n6ccnn6)cc5)cc4)cc32)cc1C(=O)O [Example 64] | > 40 |  |  |
| COc1ccc(C=C2C(=O)Nc3cc(Cl)c(-c4ccc(-c5ccc(-n6cncn6)cc5)cc4)cc32)cc1CC(=O)O [Example 51] | > 40 | *** (*** >40) |  |
| Cn1cc(C=C2C(=O)Nc3cc(F)c(-c4ccc(-c5ccncc5)cc4)cc32)cc1C(=O)O [Example 43] | < 20 |  |  |
| O=C(O)Cc1cccc(C=C2C(=O)Nc3cc(Cl)c(-c4ccc(-c5ccc(-n6cncn6)cc5)cc4)cc32)c1 [Example 52] | > 40 |  |  |
| COc1ccc(C=C2C(=O)Nc3cc(Cl)c(-c4ccc(-c5ccc(-n6ccnn6)cc5)cc4)cc32)cc1CC(=O)O [Example 56] | > 40 | *** (*** >40) |  |
| Cn1cc(C=C2C(=O)Nc3cc(Cl)c(-c4ccc(-c5ccc(-n6cncn6)cc5)cc4)cc32)cc1C(=O)O [Example 63] | > 40 |  |  |
| Cc1ccc(C=C2C(=O)Nc3cc(Cl)c(-c4ccc(-c5ccccc5O)cn4)cc32)cc1C(=O)O [Example 32] | < 20 |  |  |
| Cc1ccc(C=C2C(=O)Nc3cc(Cl)c(-c4ccc(-c5ccc(S(C)(=O)=O)cc5)cc4)cc32)cc1CC(=O)O [Example 48] | > 40 | *** (*** >40) |  |
| COc1ccc(C=C2C(=O)Nc3cc(Cl)c(-c4ccc(-c5ccc(-n6cncn6)cc5)c(F)c4)cc32)cc1CC(=O)O [Example 60] | > 40 |  |  |

| SMILES | activation at 1 µM [1] [%] | Activity beta 2 (at 1 uM) [2] | Activity beta 1 (at 1 uM) [1] |
| --- | --- | --- | --- |
| COc1ccc(C=C2C(=O)Nc3cc(Cl)c(-c4ccc(-c5ccccc5O)cc4)nc32)cc1CC(=O)O [Example 37] | > 40 |  |  |
| Cc1ccc(C=C2C(=O)Nc3cc(F)c(-c4ccc(-c5ccc(-n6cccn6)cc5)cc4)cc32)cc1C(=O)O [Example 61] | > 40 |  |  |
| Cc1ccc(C=C2C(=O)Nc3cc(F)c(-c4ccc(-c5ccncc5)cc4)cc32)cc1CC(=O)O [Example 44] | < 20 |  |  |
| Cn1ccc(C=C2C(=O)N(CC(=O)O)c3cc(Cl)c(-c4ccc(-c5ccccc5O)cc4)cc32)c1 (racemic) [Example 25, {(3E/32)-6-Chloro-5-(2′-hydroxybiphenyl-4-yl)-3-[(1-methyl-1H-pyrrol-3-yl)methylidene]-2-oxo-2,3-dihydro-1H-indol-1-yl}acetic acid] | < 20 |  |  |
| Cn1c(C=C2C(=O)Nc3cc(Cl)c(-c4ccc(-c5ccc(-n6cncn6)cc5)cc4)cc32)ccc1C(=O)O [Example 69] | > 40 |  |  |
| CN1C(=O)C(=Cc2cc(C(=O)O)n(C)c2)c2cc(-c3ccc(-c4ccccc4O)cc3)c(Cl)cc21 [Example 29] | < 20 |  |  |
| Cn1cc(C=C2C(=O)Nc3cc(Cl)c(-c4ccc(-c5ccccc5)cc4)cc32)cc1C(=O)O [Example 23] | < 20 |  |  |
| Cc1ccc(C=C2C(=O)Nc3cc(F)c(-c4cccc(-c5ccccc5O)c4)cc32)cc1CC(=O)O (single isomer, unassigned) [Example 30, (5-{(E/Z)-[6-Fluoro-5-(2′-hydroxybiphenyl-3-yl)-2-oxo-1,2-dihydro-3H-indol-3-ylidene]methyl}-2-methylphenyl)acetic acid] | < 20 |  |  |
| COc1ccc(C=C2C(=O)Nc3cc(Cl)c(-c4ccc(-c5ccc(-n6cccn6)cc5)cc4)cc32)cc1CC(=O)O [Example 49] | > 40 |  |  |
| Cc1ccc(C=C2C(=O)Nc3cc(Cl)c(-c4ccc(-c5ccccc5O)cc4)nc32)cc1CC(=O)O [Example 36] | 20 to 40 |  |  |
| COc1ccc(C=C2C(=O)Nc3cc(Cl)c(-c4ccc(-c5ccccc5O)cc4)nc32)cc1C(=O)O [Example 38] | 20 to 40 |  |  |
| Cc1ccc(C=C2C(=O)Nc3cc(Cl)c(-c4ccc(-c5ccncc5)cc4)cc32)cc1CC(=O)O [Example 39] | 20 to 40 |  |  |
| COc1ccc(C=C2C(=O)Nc3cc(Cl)c(-c4ccc(-c5ccc(-n6ccnc6C)cc5)cc4)cc32)cc1CC(=O)O [Example 66] | < 20 |  |  |
| CC(=C1C(=O)Nc2cc(F)c(-c3ccc(-c4ccccc4O)cc3)cc21)c1cccc(CC(=O)O)c1 [Example 8] | < 20 |  |  |
| Cc1ccc(C=C2C(=O)Nc3cc(Cl)c(-c4ccc(-c5ccc(-n6cncn6)cc5)cc4)cc32)cc1CC(=O)O [Example 50] | 20 to 40 |  |  |

More lines, main results first:

| activation at 1 µM [1] [%] | Activity beta 2 (at 1 uM) [2] | SMILES | Activity beta 1 (at 1 uM) [1] |
| --- | --- | --- | --- |
| < 20 |  | O=C1Nc2cc(Cl)c(-c3ccc(-c4ccccc4O)cc3)cc2C1=Cc1csc(C(=O)O)n1 [Example 22] |  |
| < 20 |  | Cc1ccc(C=C2C(=O)Nc3cc(Cl)c(-c4ccc(-c5ccccc5O)nc4)cc32)cc1CC(=O)O [Example 33] |  |
| > 40 |  | Cc1ccc(C=C2C(=O)Nc3cc(Cl)c(-c4ccc(-c5ccccc5O)cc4)cc32)cc1CC(=O)O (racemic) [Example 1, (5-{(E/Z)-[6-Chloro-5-(2′-hydroxybiphenyl-4-yl)-2-oxo-1,2-dihydro-3H-indol-3-ylidene]methyl}-2-methylphenyl)acetic acid] |  |
| > 40 |  | Cc1ccc(C=C2C(=O)Nc3cc(Cl)c(-c4ccc(-c5ccccc5O)cc4)cc32)cc1C(=O)O [Example 9] |  |
| < 20 |  | O=C(O)Cc1cc(C=C2C(=O)Nc3cc(Cl)c(-c4ccc(-c5ccccc5O)cc4)cc32)ccc1O (racemic) [Example 12, (5-{(E/Z)-[6-Chloro-5-(2′-hydroxybiphenyl-4-yl)-2-oxo-1,2-dihydro-3H-indol-3-ylidene]methyl}-2-hydroxyphenyl)acetic acid] |  |
| > 40 |  | O=C(O)Cc1cccc(C=C2C(=O)Nc3cc(F)c(-c4ccc(-c5ccccc5O)cc4)cc32)c1 [Example 5] |  |
| < 20 |  | O=C(O)COc1cccc(C=C2C(=O)Nc3cc(Cl)c(-c4ccc(-c5ccccc5O)cc4)cc32)c1 [Example 10] |  |
| > 40 |  | Cn1ccc(C=C2C(=O)Nc3cc(Cl)c(-c4ccc(-c5ccccc5O)cc4)cc32)c1 [Example 19] |  |
| > 40 | *** (*** >40) | COc1ccc(C=C2C(=O)Nc3cc(Cl)c(-c4ccc(-c5ccccc5O)cc4)cc32)cc1CC(=O)O [Example 11] |  |
| < 20 |  | Cc1ccc(C=C2C(=O)Nc3cc(Cl)c(-c4ccc(-c5ccccc5O)cn4)cc32)cc1CC(=O)O [Example 31] |  |
| < 20 |  | O=C(O)Cc1cccc(C=C2C(=O)Nc3cc(Cl)c(-c4ccc(-c5ccccc5O)nc4)cc32)c1 [Example 35] |  |
| > 40 |  | COc1ccc(C=C2C(=O)Nc3cc(F)c(-c4ccc(-c5ccccc5O)cc4)cc32)cc1CC(=O)O [Example 7] |  |
| 20 to 40 |  | Cc1ccc(C=C2C(=O)Nc3cc(F)c(-c4ccc(-c5ccccc5O)cc4)cc32)cc1C(=O)O [Example 2] |  |
| < 20 |  | O=C(O)Cc1ccc(C=C2C(=O)Nc3cc(F)c(-c4ccc(-c5ccccc5O)cc4)cc32)cc1 [Example 4] |  |
| > 40 |  | Cc1ccc(C=C2C(=O)Nc3cc(F)c(-c4ccc(-c5ccccc5O)cc4)cc32)cc1CC(=O)O [Example 3] |  |
| 20 to 40 |  | Cn1c(C=C2C(=O)Nc3cc(Cl)c(-c4ccc(-c5ccccc5O)cc4)cc32)ccc1C(=O)O [Example 14] |  |
| < 20 |  | Cc1ccc(C=C2C(=O)Nc3cc(Cl)c(-c4ccc(-c5ccccc5O)cc4)cc32)cc1 [Example 18] |  |
| < 20 |  | COc1ccc(C=C2C(=O)Nc3cc(Cl)c(-c4ccc(-c5ccccc5O)cn4)cc32)cc1CC(=O)O [Example 34] |  |
| < 20 |  | O=C1Nc2cc(Cl)c(-c3ccc(-c4ccccc4O)cc3)cc2C1=Cc1ccc(C(=O)O)[nH]1 [Example 15] |  |
| < 20 |  | Cn1nc(/C=C2\C(=O)Nc3cc(Cl)c(-c4ccc(-c5ccccc5O)cc4)cc32)cc1C(=O)O [Example 20, 3-{(Z)-[6-chloro-5-(2′-hydroxybiphenyl-4-yl)-2-oxo-1,2-dihydro-3H-indol-3-ylidene]methyl}-1-methyl-1H-pyrazole-5-carboxylic acid] |  |
| < 20 |  | O=C1Nc2cc(Cl)c(-c3ccc(-c4ccccc4O)cc3)cc2C1=Cc1c[nH]c(C(=O)O)c1 [Example 16] |  |
| < 20 |  | Cn1cc(CC(=O)O)cc1C=C1C(=O)Nc2cc(Cl)c(-c3ccc(-c4ccccc4O)cc3)cc21 [Example 17] |  |
